Assay results taken from patent US11071767B2, “Dietary compositions for reducing blood glucose levels and for weight management” (MARMAR INVESTMENT SP. Z O.O., priority 2014, dated 2021).

What was measured:
male Wistar rats [1] = experiment: Glucose tolerance test in rats after single plant extracts (Example 1); type: in vivo, rat
Procedure: An experiment was conducted on 96 male Wistar rats with mean body weight of 381.2±16.6 g, bred at […] in Olsztyn. Each study group consisted of 12 rats. The animals were kept in individual cages in a ventilated room at a constant temperature of about 22° C., controlled relative humidity of about 60% and appropriate lighting (day/night, 12/12 hours). During the experimental period, the animals were fed a standard laboratory rodent mix. Rats were deprived of food 12 hours prior to the first measurement of blood glucose levels, while constant access to water was maintained. On the day of the experiment, the rats were weighed and fasting blood glucose measurements were taken, via a scalpel incision at the tip of the tail. Next, the animals received aqueous solutions of plant extracts, Acarbose, which served as a positive control (PC) or water, which served as a negative control (NC) at pre-defined quantities via a gastric tube. All the plant extracts were provided by […] Investment in a solution form, and were administered according to the following doses: • white mulberry extract (mulberry): 120 mg per 1 kg body weight • bean extract: 100 mg per 1 kg body weight • green coffee extract (coffee): 20 mg per 1 kg body weight • bitter melon extract (melon): 150 mg per 1 kg body weight • pomelo extract: 100 mg per 1 kg body weight • acarbose preparation: 35 mg per 1 kg body weight • arabinose preparation: 25 mg per 1 kg body weight The extract solutions were prepared so as the amount of liquid administered to a sample animal weighing 350 g was 1 mL. Water was administered to the control group in the same manner/volume. […] Statistical analysis using Student's t-test was performed for proper interpretation of results. Each result obtained for a particular product was compared to the analogous result obtained in the negative control (water) group.

male Wistar rats [2] = experiment: Glucose tolerance test (sucrose or starch) in rats after plant extract combinations I-III (Example 2); type: in vivo, rat
Procedure: Each study group consisted of 10 rats. Rats were kept in individual cages in a ventilated at a constant temperature of about 22° C., controlled relative humidity of about 60% and appropriate lighting (day/night, 12/12 hours). During the experimental period, rats were fed the standard laboratory rodent mix. Rats were deprived of food 12 hours prior to the first measurement of blood glucose levels, while constant access to water was maintained. On the day of the experiment, rats were weighed and fasting blood glucose measurements were taken, via a scalpel incision at the tip of the tail. Next, rats were administered water (negative control), acarbose (positive control) or aqueous solutions of pre-defined combinations of plant extracts, as follows: • acarbose preparation: 35 mg per 1 kg body weight • combination I: white mulberry extract (120 mg per 1 kg body weight)+ bean extract (100 mg per 1 kg body weight)+ green coffee extract (20 mg per 1 kg body weight). • combination II: white mulberry extract (120 mg per 1 kg body weight)+ green coffee extract (20 mg per 1 kg body weight)+ arabinose preparation (25 mg per 1 kg body weight). • combination III: white mulberry extract (120 mg per 1 kg body weight)+ bean extract (100 mg per 1 kg body weight)+ green coffee extract (20 mg per 1 kg body weight)+ arabinose preparation (25 mg per 1 kg body weight). The solutions of the extracts were prepared so that the volume of liquid administered to an animal weighing 350 g was 1 mL. Water was administered to the control group in a similar manner. […] Statistical analysis using Student's t-test was performed for proper interpretation of results. Each result obtained for a particular product was compared to the analogous result obtained in the negative control (water) group. Results are presented in Table 2, below and in FIGS. 5A-5B.

[3] = GLUCOSE load (50% glucose solution), 0 min (fasting)
[4] = STARCH load (40% starch solution), 0 min (fasting)
[5] = SUCROSE load (50% sucrose solution), 0 min (fasting)

SMILES | blood glucose level (male Wistar rats [1]; [3]) [mg/dL] | blood glucose level (male Wistar rats [1]; GLUCOSE load, 15 min) [mg/dL] | blood glucose level (male Wistar rats [1]; GLUCOSE load, 30 min) [mg/dL] | blood glucose level (male Wistar rats [1]; GLUCOSE load, 60 min) [mg/dL] | blood glucose level (male Wistar rats [1]; GLUCOSE load, 90 min) [mg/dL] | blood glucose level (male Wistar rats [1]; GLUCOSE load, 120 min) [mg/dL] | blood glucose level (male Wistar rats [1]; GLUCOSE load, 180 min) [mg/dL] | blood glucose level (male Wistar rats [1]; [4]) [mg/dL] | blood glucose level (male Wistar rats [1]; STARCH load, 15 min) [mg/dL] | blood glucose level (male Wistar rats [1]; STARCH load, 30 min) [mg/dL] | blood glucose level (male Wistar rats [1]; STARCH load, 60 min) [mg/dL] | blood glucose level (male Wistar rats [1]; STARCH load, 90 min) [mg/dL] | blood glucose level (male Wistar rats [1]; STARCH load, 120 min) [mg/dL] | blood glucose level (male Wistar rats [1]; STARCH load, 180 min) [mg/dL] | blood glucose level (male Wistar rats [1]; [5]) [mg/dL] | blood glucose level (male Wistar rats [1]; SUCROSE load, 15 min) [mg/dL] | blood glucose level (male Wistar rats [1]; SUCROSE load, 30 min) [mg/dL] | blood glucose level (male Wistar rats [1]; SUCROSE load, 60 min) [mg/dL] | blood glucose level (male Wistar rats [1]; SUCROSE load, 90 min) [mg/dL] | blood glucose level (male Wistar rats [1]; SUCROSE load, 120 min) [mg/dL] | further results
C[C@H]1O[C@H](O[C@H]2[C@H](O)[C@@H](O)[C@@H](O[C@H]3[C@H](O)[C@@H](O)C(O)O[C@@H]3CO)O[C@@H]2CO)[C@H](O)[C@@H](O)[C@@H]1N[C@H]1C=C(CO)[C@@H](O)[C@H](O)[C@H]1O (some centres unmarked) [Acarbose] | 95.6 ± 6.37 | 168.9 ± 16.33 | 163.3 ± 22.35 | 158.0 ± 12.91 | 157.6 ± 10.20 | 137.7 ± 10.07 | 106.8 ± 8.59 | 93.5 ± 6.36 | 120.0 ± 14.97 | 114.9 ± 14.48 | 100.1 ± 7.28 | 95.5 ± 6.17 | 94.6 ± 6.02 | 90.0 ± 7.03 | 94.2 ± 7.43 | 120.0 ± 15.80 | 114.9 ± 14.48 | 100.1 ± 7.28 | 95.5 ± 6.17 | 94.6 ± 6.02 | blood glucose level (male Wistar rats [1]; SUCROSE load, 180 min): 90.0 ± 6.21 mg/dL; blood glucose level (male Wistar rats [2]; STARCH 40% solution 2 g/kg, 0 min (fasting)): 89.7 ± 6.09 mg/dL; blood glucose level (male Wistar rats [2]; STARCH, 15 min): 105.5 ± 9.74 mg/dL; blood glucose level (male Wistar rats [2]; STARCH, 30 min): 104.6 ± 4.24 mg/dL; blood glucose level (male Wistar rats [2]; STARCH, 60 min): 97.3 ± 7.18 mg/dL; blood glucose level (male Wistar rats [2]; STARCH, 90 min): 98.3 ± 6.09 mg/dL; blood glucose level (male Wistar rats [2]; STARCH, 120 min): 94.8 ± 6.01 mg/dL; blood glucose level (male Wistar rats [2]; STARCH, 180 min): 88.7 ± 4.87 mg/dL; blood glucose level (male Wistar rats [2]; SUCROSE 50% solution 2 g/kg, 0 min (fasting)): 84.7 ± 4.81 mg/dL; blood glucose level (male Wistar rats [2]; SUCROSE, 15 min): 112.2 ± 8.58 mg/dL; blood glucose level (male Wistar rats [2]; SUCROSE, 30 min): 121.1 ± 8.93 mg/dL; blood glucose level (male Wistar rats [2]; SUCROSE, 60 min): 116.0 ± 6.87 mg/dL; blood glucose level (male Wistar rats [2]; SUCROSE, 90 min): 110.2 ± 6.51 mg/dL; blood glucose level (male Wistar rats [2]; SUCROSE, 120 min): 109.0 ± 4.66 mg/dL; blood glucose level (male Wistar rats [2]; SUCROSE, 180 min): 101.1 ± 5.34 mg/dL
O=C[C@H](O)[C@@H](O)[C@@H](O)CO [Arabinose, L-Arabinose] | 96.0 ± 3.62 | 170.9 ± 19.55 | 157.1 ± 20.27 | 148.2 ± 18.33 | 152.2 ± 11.19 | 137.0 ± 8.96 | 111.6 ± 14.42 | 90.9 ± 5.92 | 116.3 ± 8.88 | 123.5 ± 12.49 | 110.9 ± 7.28 | 111.5 ± 4.19 | 106.3 ± 6.54 | 100.1 ± 6.33 | 94.7 ± 7.31 | 135.4 ± 14.68 | 132.9 ± 15.65 | 132.9 ± 9.06 | 131.7 ± 7.55 | 125.4 ± 6.52 | blood glucose level (male Wistar rats [1]; SUCROSE load, 180 min): 123.0 ± 7.25 mg/dL
